Series [1] concerns 3T3-L1 and UCP2-transfected 3T3-L1 cells. Nature of the series: Mitochondrial membrane potential (JC-1 fluorometry) in adipocytes. In kind it is cell-based. Conditions: for increase in mitochondrial potential: p<0.05. How it is done: Adipocytes were incubated with adipocyte medium for 4 h with or without 1α,25-(OH)2-D3. Mitochondrial membrane potential was analyzed fluorometrically with a lipophilic cationic dye JC-1 (5,5′,6,6′-tetrachloro-1,1′,3,3′-tetraethylbenzimidazol carbocyanine iodide) using a mitochondrial potential detection kit (Biocarta, San Diego, Calif.). Mitochondrial potential was determined as the ratio of red fluorescence (excitation 550 nm, emission 600 nm) and green fluorescence (excitation 485 nm, emission 535 nm) using a fluorescence microplate reader.
Adipocytes were incubated with adipocyte medium for 4 h with or without GDP, BK 8644, GDP plus BK8644. Mitochondrial membrane potential was analyzed fluorometrically with a lipophilic cationic dye JC-1 (5,5′,6,6′-tetrachloro-1,1′,3,3′-tetraethylbenzimidazol carbocyanine iodide) using a mitochondrial potential detection kit (Biocarta, San Diego, Calif.). Mitochondrial potential was determined as the ratio of red fluorescence (excitation 550 nm, emission 600 nm) and green fluorescence (excitation 485 nm, emission 535 nm) using a fluorescence microplate reader.

Series [2] relates to 3T3-L1 and UCP2-transfected 3T3-L1 adipocytes. Briefly: Cytosolic/intracellular calcium (fura-2 dual-wavelength fluorescence imaging) in adipocytes. In kind it is cell-based. Particulars: 3T3-L1 cells; data not shown. (Calcium flux is commonly read through the fluorescence of an indicator in the cells.)
The next series relates to caspase-3. Briefly: Caspase-3 mRNA expression by real-time PCR in 3T3-L1 and UCP2-transfected 3T3-L1 adipocytes. In kind it is cell-based. The method, then: (§1) 3T3-L1 preadipocytes were incubated at a density of 8000 cells/cm2 (10 cm2 dish) and grown in Dulbecco's modified Eagle's medium (DMEM) containing 10% FBS and antibiotics (adipocyte medium) at 37° C. in 5% CO2 in air. Confluent preadipocytes were induced to differentiate with a standard differentiation medium consisting of DMEM-F10 (1:1, vol/vol) medium supplemented with 1% FBS, 1 μM dexamethasone, IBMX (0.5 mM), and antibiotics (1% penicillin-streptomycin). Preadipocytes were maintained in this differentiation medium for 3 days and subsequently cultured in adipocyte medium. Cultures were re-fed every 2-3 days to allow 90% cells to reach full differentiation before they were chemically treated. Chemicals were freshly diluted in adipocyte medium before treatment. Cells were washed with fresh adipocyte medium, re-fed with medium containing the different treatments, and incubated at 37° C. in 5% CO2 in air before analysis. Cell viability was measured via trypan blue exclusion.
UCP2 full-length cDNAs were amplified by […] using mRNAs isolated from mouse white adipose tissues. The PCR primers for this amplification are shown as follows: UCP2 forward, 5′-[…]-3′, reverse, 5′-[…]-3′. The PCR products were then subcloned into pcDNA4/His expression vectors. The linearized constructs were transfected into 3T3-L1 preadipocytes using lipofectamine plus standard protocol (Invitrogen, Carlsbad, Calif.). After 48 h of transfection, cells were split and cultured in selective medium containing 400 ug/ml zeocin for the selection of resistant colonies. Cells were fed with selective medium every 3 days until resistant colonies could be identified. These resistant foci were picked, expanded, tested for expression, and frozen for future experiments.
A total cellular RNA isolation kit (Ambion, Austin, Tex.) was used to extract total RNA from 3T3-L1 cells according to the manufacturer's instructions.
Adipocyte caspase-1, caspase-3, Bcl-2, and Bax mRNA were quantitatively measured using a Smart Cycler Real Time PCR System (Cepheid, Sunnyvale, Calif.) with a TaqMan 1000 Core Reagent Kit (Applied Biosystems, Branchburg, N.J.). The primers and probe sets were ordered from Applied Biosystems TaqMan Assays-on-Demand Gene Expression primers and probe set collection according to the manufacturer's instructions. Pooled 3T3-L1 adipocyte total RNA was serial-diluted in the range of 1.5625-25 ng and used to establish a standard curve; total RNAs for unknown samples were also diluted in this range. Reactions of quantitative RT-PCR for standards and unknown samples were Cepheid, Sunnyvale, Calif.) and TaqMan Real Time PCR Core Kit. The mRNA quantitation for each sample was further normalized using the corresponding 18 s quantitation, with a forward primer, 5′-[…]-3′, and a reverse primer, 5′-[…]-3′.
3T3-L1 preadipocytes were incubated at a density of 8000 cells/cm2 (10 cm2 dish) and grown in Dulbecco's modified Eagle's medium (DMEM) containing 10% FBS and antibiotics at 37° C. in 5% CO2. Confluent preadipocytes were induced to differentiate with a standard differentiation medium consisting of DMEM-F 10 (1:1, vol/vol) medium supplemented with 1% FBS, 1 μM dexamethasone, IBMX (0.5 mM) and antibiotics (1% penicillin/streptomycin). Preadipocytes were maintained in this differentiation medium for 3 days and subsequently cultured in adipocyte medium. Cultures were re-fed every 2-3 days to allow 90% cells to reach fully differentiation before conducting chemical treatment. Chemicals were freshly diluted in adipocyte medium before treatment. Cells were washed with fresh adipocyte medium, re-fed with medium containing the different treatments, and incubated at 37° C. in 5% CO2 in air before analysis. Cell viability was measured via trypan blue exclusion.
Adipocytes were incubated with adipocyte medium for 24 h with or without GDP, BK 8644, GDP plus BK8644 before total RNA extraction. […]

The test system of another series is caspase-1. Nature of the series: Caspase-1 mRNA expression by real-time PCR in 3T3-L1 and UCP2-transfected 3T3-L1 adipocytes. In kind it is cell-based. Particulars: DNP 25 μM and 50 μM, 24 h; P<0.05. The method, then:
as §1
(§2) UCP2 full-length cDNAs were amplified by […] using mRNAs isolated from mouse white adipose tissues. The PCR primers for this amplification are shown as follows: UCP2 forward, 5′-[…]-3′, reverse, 5′-[…]-3′. The PCR products were then subcloned into pcDNA4/His expression vectors. The linearized constructs were transfected into 3T3-L1 preadipocytes using lipofectamine plus standard protocol (Invitrogen, Carlsbad, Calif.). After 48 h of transfection, cells were split and cultured in selective medium containing 400 ug/ml zeocin for the selection of resistant colonies. […]
(§3) Adipocyte caspase-1, caspase-3, Bcl-2, and Bax mRNA were quantitatively measured using a Smart Cycler Real Time PCR System (Cepheid, Sunnyvale, Calif.) with a TaqMan 1000 Core Reagent Kit (Applied Biosystems, Branchburg, N.J.). […] Reactions of quantitative RT-PCR for standards and unknown samples were Cepheid, Sunnyvale, Calif.) and TaqMan Real Time PCR Core Kit. The mRNA quantitation for each sample was further normalized using the corresponding 18 s quantitation, with a forward primer, 5′-[…]-3′, and a reverse primer, 5′-[…]-3′.

The next series deals with Bcl-2/Bax. Briefly: Bcl-2/Bax expression ratio by real-time PCR in 3T3-L1 and UCP2-transfected 3T3-L1 adipocytes. The series is classed as cell-based. Conditions: DNP 25 μM and 50 μM, 24 h; P<0.02. The method, then: as §1, §2, §3
(Real-time PCR tracks product formation cycle by cycle.)

The subject of a further series is UCP2. Nature of the series: UCP2 expression in 3T3-L1 cells (western blot, UCP2/actin). Conditions: siRNA transfected 3T3-L1 cells, 48 hrs after transfection. The series is classed as cell-based, mouse. The method, then:
Duplex siRNA corresponding to UCP2 gene was designed and chemically synthesized by Invitrogen. The following gene-specific sequences were used successfully: Si-UCP2 sense 5′-GCCUCUACGACUCUGUCAA-3′ and antisense […]. Transfection of siRNA was performed with Oligofectamine™ reagent (Invitrogen Life Technologies, CA) in 6-well plates. Briefly, Oligofectamine diluted in DMEM was applied to the duplex siRNA mixture, and the formulation was continued for 20 min to allow the Oligofectamine-oligonucleotide complex to form. Per well, 800 μl of plating medium and 10 ul of 20 μM duplex siRNA duplex siRNA formulated with 4 μl of Oligofectamine were applied in a final volume of 1 ml. Cells were then incubated at […] in a CO2 incubator for 4 hrs. […]
Adipocytes were harvested and sonicated in a homogenization buffer containing 50 mM Tris-HCl (PH 7.4), 250 mM sucrose, 1 mM EDTA, 1 mM dithiothreitol, 1% (v/v) Triton X, 10% protease cocktail (Sigma). […] Homogenate intrafranatant protein from equal numbers of cells (determined via protein quantitation using Bradford method as described previously) was boiled in Laemmli sample buffer and subject to 10% SDS-polyacrylamide gel electrophoresis (PAGE). […] Visualization was detected with chemiluminescence reagent, using the Western Blotting Luminal Reagent (Santa Cruz Biotechnology, CA).
(In general: Immunoblotting shows a protein as a band on a membrane.)

The mark [3] stands for this setting: siRNA transfected 3T3-L1 cells (UCP2 ko) vs control.

The source of these data is patent publication US20070286886A1, “Materials And Methods For Inducing Apoptosis In Adipocytes” (University of Tennessee Research Foundation, priority 2004, published 2007).

`Nc1nc2c(ncn2[C@@H]2O[C@H](COP(=O)(O)OP(=O)(O)O)[C@@H](O)[C@H]2O)c(=O)[nH]1` [GDP, guanosine 5′-diphosphate]: the “increase in mitochondrial potential” value is listed as 27% in series [1] (100 μM, 3T3-L1 cells, 4 h) and 48% in series [1] (500 μM, 3T3-L1 cells, 4 h). The mitochondrial potential entry in series [1] (3T3-L1 cells, GDP) was “increased”. Besides, the “[Ca2+]i level” value in series [2] was “decreased”. Besides, the “suppression of caspase-3 expression in BK8644 pretreated cells” value with caspase-3 (3T3-L1 cells pretreated with BK8644, p<0.05) came out at 45%.
Take `O=[N+]([O-])c1ccc(O)c([N+](=O)[O-])c1` [DNP, 2,4-dinitrophenol]: in the series on caspase-1, the “basal caspase-1 expression level compared with control cells” value is reported as “significantly higher”. Further, the “basal caspase-3 expression level compared with control cells” value in the series on caspase-3 (DNP 25 μM and 50 μM, 24 h, P<0.05) is on record as “significantly higher”. For the same compound, in the series with Bcl-2/Bax, the “Bcl-2/Bax ratio versus nontransfected 3T3-L1 cells” value is “significantly lower”.
In the case of “siRNA: duplex siRNA corresponding to UCP2 gene, sense 5′-GCCUCUACGACUCUGUCAA-3′ (antisense UUGACAGAGUCGAGGC; chemistry not given here)”, in series [1] (setting [3]), the “increase in mitochondrial potential” value amounted to 52%. Moreover, the “decrease in UCP2 expression” value in the series on UCP2 worked out at 70%. In the series on caspase-3 (setting [3]), the “decrease in caspase-3 expression” value is listed as 58%.
